Holding throughout (format): biochemical
In assay [1] the target is recombinant human G6PD (HsG6PD) (Homo sapiens, UniProt P11413). The assay can be described thus: Inhibition of recombinant human G6PD by the selected compounds. The note with it: compound 400 μM. An excerpt:
(§1) Here, we tested an in-house library of 55 compounds with some structural similarity to the previously reported molecules by Preuss et al.. […] In addition, we tested these synthetic compounds as potential recombinant human G6PD (HsG6PD) protein inhibitors. We observed that synthetic compounds, such as JMM-2, CNZ-3, CNZ-7, and CNZ-8, inhibited the fused TvG6PD::6PGL and the HsG6PD enzymes. For example, JMM-2 inhibited both enzymes by 81%, and CNZ-3 inhibited their catalytic activity by around 90%. Conversely, six of them, JMM-3, CNZ-16, CNZ-17, MCC-7, CMC-1, and TDA-5, inhibited the fused TvG6PD::6PGL enzyme activity in a more significant proportion regarding HsG6PD. […] The selective inhibition over the fused TvG6PD::6PGL enzyme may help improve the rational design of new drugs against this parasite without affecting the activity of HsG6PD.

In assay [2] the target is T1, fused TvG6PD::6PGL enzyme (Trichomonas vaginalis, UniProt A2EC78). The assay can be described thus: Orthogonal assay: IC50 by residual activity of TvG6PD::6PGL. The procedure: Figure 2 Inactivation of the TvG6PD::6PGL enzyme with CNZ-3, MCC-7, JMM-3, and CNZ-17. The protein was adjusted at 0.2 mg/mL and incubated with increasing concentrations of each compound (0–800 μM) for 2 h at 37 °C. The IC50 values were determined by plotting the residual activity of the fused TvG6PD::6PGL enzyme versus compound concentrations. The assays were carried out in triplicate, and the data represent the mean ± standard error.
The compound concentration at which the enzyme loses 50% of its initial activity (IC50) was determined according to Hernández-Ochoa et al.. The G6PD::6PGL protein was adjusted to a 0.2 mg/mL concentration and incubated for 2 h at 37 °C, with increasing concentrations from 0 to 800 µM of the selected synthetic hit compounds. Then, the residual activity was measured, as mentioned above.

Assay [3] has as its target T1, fused TvG6PD::6PGL enzyme. Nature of the assay: Time-course inactivation, second-order rate constant (k2). As to conditions: read-out: second-order rate constant of inactivation (k2). The procedure: To determine the enzyme–inhibitor complex formation rate for each synthetic compound, we first calculated the pseudo-first-order inactivation constants (k1) by measuring the initial velocities at five fixed concentrations, at intervals between 0 and 120 min. […] We observed single-exponential decays of time-course inactivation for all the compounds examined in this study (Figure 3A,C,E,G). Additionally, as the synthetic compounds’ concentrations increased, the enzyme lost catalytic activity in a shorter incubation time; in contrast, the enzymatic activity of enzymes without compounds remained intact. The k1 values for each compound were calculated and plotted against their concentrations, and a linear behavior was obtained and fitted with the linear equation (Figure 3B,D,F,H). The calculated k2 values for JMM-3, CNZ-3, CNZ-17, and MCC-7 were: 0.33, 0.66, 0.38, and 0.26 M^−1 s^−1, respectively. It is important to mention that CNZ-3 formed the enzyme–inhibitor complex faster (k2 value of 0.66 M^−1 s^−1), regarding the CNZ-17 compound. This difference in the affinity to form the enzyme–inhibitor complex may be due to the p-chlorine moiety present in CNZ-3, unlike CNZ-17, which has a methoxy group in the same position.
Figure 3 Inactivation of fused G6PD::6PGL enzyme by chemical compounds. […] We obtained second-order rate constant values of inactivation (k2) of each of (B) JMM-3, (D) CNZ-3, (F) CNZ-17, and (H) CCM-7 by fitting the calculated k1 value versus the concentration of the compound. […] TEXT PRINTED IN THE PICTURE: (B) JMM-3: k2= 0.33 (M^-1* s^-1) | (D) CNZ-3: k2 = 0.66 (M^-1* s^-1) | (F) CNZ-17: k2 = 0.38 (M^-1* s^-1) | (H) MCC-7: k2 = 0.26 (M^-1* s^-1) DOUBTS OF THE COPYIST ABOUT THIS PICTURE: CNZ-3, k2: small print, 0.66 could be 0.68 or 0.86 / CNZ-17, k2: small print, 0.38 could be 0.36 or 0.88 / MCC-7, k2: small print, 0.26 could be 0.28; subscript of k not clearly readable / Panels D, F, H: the sign between M^-1 and s^-1 (asterisk) is not clearly readable
Second-order rate constants of inactivation (k2) were used to determine the inactivation rate of a chemical compound and the formation of the enzyme–inhibitor complex. Therefore, pseudo-first-order rate constants (k1) were determined for the recombinant G6PD::6PGL, adjusted at 0.2 mg/mL, and incubated with four different fixed concentrations of each compound at 37 °C. At the indicated times, a sample was withdrawn, and the residual activity was measured. First, we calculated the pseudo-first-order rate constants (k1) by fitting the residual activities data using a monoexponential decay equation: AR=A0 e^−kt , where AR is the residual activity at time t, A0 is the activity at the initial time, and k is the pseudo-first-order inactivation constant (min^−1). […]

The target of assay [4] is T1, fused TvG6PD::6PGL enzyme. Nature of the assay: Determination of inhibition type (double reciprocal plots). As to conditions: Lineweaver–Burk; for inhibition type for G6P substrate: G6P varied, NADP+ saturating; for inhibition type for NADP+ substrate: NADP+ varied, G6P saturating. An excerpt: Figure 4 Determination of inhibition type of selected compounds. Lineweaver–Burk plots for the JMM-3, CNZ-3, CNZ-17, and MCC-7 compounds with G6P (A,C,E,G) or NADP^+ (B,D,F,H) substrates. The data represent the mean ± of three independent experiments, and standard errors were lower than 5%. […] Only the inhibition type (a class) is printed as a plot label, and it is uncertain whether that counts as a result. The concentrations in the plot legends stand alone and were left out.
To determine the inhibition mechanism of the four selected hit compounds over the T. vaginalis-fused G6PD::6PGL protein, we monitored the initial velocities in the presence of two fixed concentrations of each of the inhibitory compounds. The initial velocities were determined at different substrate concentrations (from 0 to 140 µM). […] Subsequently, the initial velocities for each physiological substrate (G6P and NADP^+) were analyzed using the double reciprocal plot method.

The target in assay [5] is T1, fused TvG6PD::6PGL enzyme. The assay can be described thus: Screening of in-house library for inhibition of fused TvG6PD::6PGL catalytic activity. The note with it: read-out: G6PD::6PGL Inhibition (%), compound 400 μM, 0.2 mg/mL enzyme, 2 h at 37 °C.
Source text: as §1
We tested an in-house library of 55 chemical compounds synthesized in the Medicinal Chemistry Laboratory from Facultad de Farmacia, Universidad Autónoma del Estado de Morelos. In-house libraries are advantageous in the discovery of novel bioactive small molecules. […] Subsequently, the residual activity was measured using a standard reaction mixture (1 mM G6P, 0.2 mM NADP^+, 0.1 mM Tris-HCl, and one mM MgCl2, pH 8.0). […]

One may read the IC50 as the point on the concentration scale where inhibition reaches its midpoint.

SMILES strings stand for the structures.

recombinant human G6PD (HsG6PD), sequence (P11413 whole entry, the tested form may be a part): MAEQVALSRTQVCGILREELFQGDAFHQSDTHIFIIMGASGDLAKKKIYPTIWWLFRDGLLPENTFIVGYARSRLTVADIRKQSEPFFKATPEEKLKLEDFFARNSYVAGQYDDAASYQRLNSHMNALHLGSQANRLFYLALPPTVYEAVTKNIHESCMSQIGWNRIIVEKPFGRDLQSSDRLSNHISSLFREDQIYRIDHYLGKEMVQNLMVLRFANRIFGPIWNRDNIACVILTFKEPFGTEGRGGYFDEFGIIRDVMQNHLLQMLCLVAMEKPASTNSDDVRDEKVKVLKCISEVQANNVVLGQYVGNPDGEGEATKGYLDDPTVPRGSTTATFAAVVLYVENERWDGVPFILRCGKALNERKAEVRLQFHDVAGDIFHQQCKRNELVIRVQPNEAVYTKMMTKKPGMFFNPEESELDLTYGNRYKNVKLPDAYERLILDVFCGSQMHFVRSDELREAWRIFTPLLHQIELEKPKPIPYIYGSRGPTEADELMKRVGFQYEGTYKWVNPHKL
T1 sequence (A2EC78 entry or part of it): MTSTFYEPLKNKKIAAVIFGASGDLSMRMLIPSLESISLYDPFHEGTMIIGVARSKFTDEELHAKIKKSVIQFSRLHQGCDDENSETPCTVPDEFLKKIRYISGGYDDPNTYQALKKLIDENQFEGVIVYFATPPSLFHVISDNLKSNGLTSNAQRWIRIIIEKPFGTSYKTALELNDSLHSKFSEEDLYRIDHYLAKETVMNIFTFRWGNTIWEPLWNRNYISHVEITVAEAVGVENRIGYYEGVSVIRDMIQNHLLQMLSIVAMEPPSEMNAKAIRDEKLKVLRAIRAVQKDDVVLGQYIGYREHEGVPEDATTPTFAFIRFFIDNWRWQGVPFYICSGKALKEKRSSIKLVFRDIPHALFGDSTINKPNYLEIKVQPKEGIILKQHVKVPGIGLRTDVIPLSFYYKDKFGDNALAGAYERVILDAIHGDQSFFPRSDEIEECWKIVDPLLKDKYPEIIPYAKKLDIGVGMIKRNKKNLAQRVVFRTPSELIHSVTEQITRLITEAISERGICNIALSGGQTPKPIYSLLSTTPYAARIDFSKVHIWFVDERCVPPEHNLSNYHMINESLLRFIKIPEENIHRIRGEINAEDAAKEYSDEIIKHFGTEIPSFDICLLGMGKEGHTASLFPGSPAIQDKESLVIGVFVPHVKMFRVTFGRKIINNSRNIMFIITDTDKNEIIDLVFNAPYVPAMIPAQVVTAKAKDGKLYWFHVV

Take `O=C(Nc1ccc(Cl)cc1)Nc1ncc([N+](=O)[O-])s1` [CNZ-3]: the inhibition at 400 µM in assay [1] was approximately 90%. In assay [2], 93 µM corresponded to half-maximal inhibition (IC50). The kinact/KI in assay [3] came to 0.66 M⁻¹ s⁻¹. Moreover, in assay [4], the “inhibition type for G6P substrate” value is “noncompetitive-type inhibition” and the “inhibition type for NADP+ substrate” value is “competitive-type inhibition”.

`COc1ccc(NC(=O)Nc2ncc([N+](=O)[O-])s2)cc1` [CNZ-17]: in assay [5], the inhibition at 400 µM was more than 50%. Also, the inhibition at 400 µM in assay [1] stood at 0%. Further, the IC50 in assay [2] was 356 µM. Also, in assay [3], the kinact/KI was 0.38 M⁻¹ s⁻¹. In assay [4], the “inhibition type for G6P substrate” value is given as “uncompetitive-type inhibition” and the “inhibition type for NADP+ substrate” value was “uncompetitive-type inhibition”.

As for `COc1cc(CCC(=O)O)ccc1OCc1ccc(-c2ccccc2C#N)cc1` [JMM-3], the inhibition at 400 µM in assay [5] is more than 50%. Further, half-maximal inhibition in assay [2] (IC50) required 155 µM. Moreover, the kinact/KI in assay [3] was determined as 0.33 M⁻¹ s⁻¹. Besides, in assay [4], the “inhibition type for G6P substrate” value is “uncompetitive-type inhibition” and the “inhibition type for NADP+ substrate” value was “uncompetitive-type inhibition”.

In the case of `O=C(COc1ccc(/C=C2\SC(=O)NC2=O)cc1)NC1CCN(Cc2ccccc2)CC1` [MCC-7], the inhibition at 400 µM in assay [1] is 11%. Further, the IC50 in assay [2] is 260 µM. In assay [3], the kinact/KI is 0.26 M⁻¹ s⁻¹. In assay [4], the “inhibition type for G6P substrate” value is listed as “non-competitive-type inhibition” and the “inhibition type for NADP+ substrate” value is listed as “uncompetitive type”.

The values above are taken from article PMC8880039, “Kinetic and Molecular Docking Studies to Determine the Effect of Inhibitors on the Activity and Structure of Fused G6PD::6PGL Protein from Trichomonas vaginalis” (Molecules, 2022).
